Values quoted from earlier work as cited in paper PMC7904743, “WIDOCK: a reactive docking protocol for virtual screening of covalent inhibitors” (Journal of Computer-Aided Molecular Design, 2021).
Where two headings read alike, the source gives them in different places.

How the values were obtained:
[1] = tested on: NUDT7; details: protein labeling at 200 μM; experimental actives if % labeling higher than 50%; cited from earlier work
[2] = thiol reactivity, cited from earlier work
[3] = natural log of average rate constant k
[4] = natural log of average rate constant

Compound	NUDT7 % labeling [1] [%]	ln(avg k) [2, 3]	ln(avg k) [2, 4]
Cc1cc(N2CCCC2)ccc1NC(=O)CCl [PCM-0102301, Cc1cc(N2CCCC2)ccc1NC(=O)CCl]	24	-16.271	
CC(=O)NC1CCCN(C(=O)CCl)C1 (centres unmarked) [PCM-0102934, CC(=O)NC1CCCN(C(=O)CCl)C1]	0		-15.534
CN(C)c1ccc(NC(=O)CCl)cc1 [PCM-0102859, CN(C)c1ccc(NC(=O)CCl)cc1]	0		-14.235
O=C(CCl)NC1CCCCCCC1 [PCM-0102318, O=C(CCl)NC1CCCCCCC1]	0	-16.468	
COc1ccc(NC(=O)NC(=O)CCl)cc1 [PCM-0102268, COc1ccc(NC(=O)NC(=O)CCl)cc1]	0	-15.795	
CC(NC(=O)CCl)C(=O)O (centres unmarked) [PCM-0102990, CC(NC(=O)CCl)C(=O)O]	0		-18.115
Cc1cc(NC(=O)CCl)n(C)n1 [PCM-0102383, Cc1cc(NC(=O)CCl)n(C)n1]	0	-15.428	
CC1CCCCN1C(=O)CCl (centres unmarked) [PCM-0102434, CC1CCCCN1C(=O)CCl]	0	-15.958	
Cc1cc(NC(=O)CCl)ccc1Br [PCM-0102770, Cc1cc(NC(=O)CCl)ccc1Br]	21		-15.518
CC1CCC(N(C(=O)CCl)C2CC2)CC1 (centres unmarked) [PCM-0102792, CC1CCC(N(C(=O)CCl)C2CC2)CC1]	13		-16.001
Cc1ccc(NC(=O)CCl)c(C)c1 [PCM-0103041, Cc1ccc(NC(=O)CCl)c(C)c1]	0		-16.644
CC1CCN(c2ccc(NC(=O)CCl)cc2)CC1 [PCM-0102235, CC1CCN(c2ccc(NC(=O)CCl)cc2)CC1]	0	-16.035	
O=C(CCl)Nc1ccccc1O [PCM-0102907, O=C(CCl)Nc1ccccc1O]	36		-17.265
Cc1ccccc1CNC(=O)CCl [PCM-0102253, Cc1ccccc1CNC(=O)CCl]	0	-16.467	
O=C(CCl)Nc1ccc2[nH]c(C(F)(F)F)nc2c1 [PCM-0102151, O=C(CCl)Nc1ccc2[nH]c(C(F)(F)F)nc2c1]	7	-15.575	
Cc1cccc(N2CCN(C(=O)CCl)CC2)c1C [PCM-0102215, Cc1cccc(N2CCN(C(=O)CCl)CC2)c1C]	29	-15.103	
O=C(CCl)Nc1ccc(N2CCCCCC2)cc1 [PCM-0102199, O=C(CCl)Nc1ccc(N2CCCCCC2)cc1]	8	-15.785	
O=C(CCl)Nc1c(Cl)cccc1Cl [PCM-0102234, O=C(CCl)Nc1c(Cl)cccc1Cl]	64	-17.086	
O=C(CCl)N1CCc2[nH]c3ccccc3c2C1 [PCM-0102591, O=C(CCl)N1CCc2[nH]c3ccccc3c2C1]	22	-14.023	
O=C(CCl)Nc1ccc2c(c1)OC1(CCCC1)O2 [PCM-0102801, O=C(CCl)Nc1ccc2c(c1)OC1(CCCC1)O2]	10		-15.785
O=C(CCl)Nc1nc(-c2ccco2)cs1 [PCM-0102979, O=C(CCl)Nc1nc(-c2ccco2)cs1]	25		-15.876
O=C(CCl)Nc1ccc(N2CCCCC2)nc1 [PCM-0102812, O=C(CCl)Nc1ccc(N2CCCCC2)nc1]	14		-15.797
N#CC1(NC(=O)CCl)CCCC1 [PCM-0102136, N#CC1(NC(=O)CCl)CCCC1]	0	-15.612	
O=C(CCl)NC1CCC(C(F)(F)F)CC1 (centres unmarked) [PCM-0102864, O=C(CCl)NC1CCC(C(F)(F)F)CC1]	0		-16.404
Cc1cccc([N+](=O)[O-])c1NC(=O)CCl [PCM-0102176, Cc1cccc([N+](=O)[O-])c1NC(=O)CCl]	22	-16.601	
